This assay addresses T1, human MR (Homo sapiens, UniProt P08235).
T1 construct: The full length human MR gene is cloned from a human kidney or human brain cDNA library; made in house; host or cells: SF9 insect cells (baculovirus)
T1 sequence (P08235 1-984): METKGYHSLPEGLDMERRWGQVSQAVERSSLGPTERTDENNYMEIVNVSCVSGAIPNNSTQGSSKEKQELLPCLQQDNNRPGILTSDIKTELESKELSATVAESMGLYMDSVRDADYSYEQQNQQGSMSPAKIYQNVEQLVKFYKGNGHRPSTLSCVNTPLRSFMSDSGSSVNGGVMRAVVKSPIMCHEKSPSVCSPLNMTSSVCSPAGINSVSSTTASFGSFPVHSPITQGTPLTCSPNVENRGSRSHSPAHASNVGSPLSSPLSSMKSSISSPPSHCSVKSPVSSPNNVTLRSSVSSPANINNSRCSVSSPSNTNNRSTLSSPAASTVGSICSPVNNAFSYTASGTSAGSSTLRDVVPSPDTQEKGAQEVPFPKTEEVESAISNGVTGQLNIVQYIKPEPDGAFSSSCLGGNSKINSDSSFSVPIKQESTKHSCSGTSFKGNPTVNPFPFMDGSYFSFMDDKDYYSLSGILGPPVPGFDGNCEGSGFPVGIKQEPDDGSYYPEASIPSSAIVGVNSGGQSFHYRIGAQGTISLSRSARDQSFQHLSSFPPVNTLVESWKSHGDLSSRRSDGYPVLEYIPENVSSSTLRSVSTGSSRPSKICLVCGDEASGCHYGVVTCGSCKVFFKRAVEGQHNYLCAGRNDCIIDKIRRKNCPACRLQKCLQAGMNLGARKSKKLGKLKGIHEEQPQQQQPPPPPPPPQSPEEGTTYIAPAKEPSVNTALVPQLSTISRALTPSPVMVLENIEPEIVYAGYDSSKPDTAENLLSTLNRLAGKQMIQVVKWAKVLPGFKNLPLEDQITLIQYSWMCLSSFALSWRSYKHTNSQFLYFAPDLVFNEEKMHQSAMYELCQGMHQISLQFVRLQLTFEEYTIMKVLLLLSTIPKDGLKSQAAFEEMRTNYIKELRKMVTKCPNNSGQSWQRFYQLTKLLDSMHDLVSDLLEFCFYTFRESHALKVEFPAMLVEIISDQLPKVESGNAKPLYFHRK
Briefly: Mineralocorticoid Receptor Binding Assay (Method 1). The conditions noted are these: [3H]-aldosterone, racemic mixture unless otherwise indicated. The gist of the method: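 Lysate of Sf9 cells expressing baculovirus full-length human MR (20-25 μg protein) incubated with 0.5 nM [3H]-aldosterone and test compound, pH 7.5 molybdate buffer, 16 h at 4 °C. Bound ligand collected by filtration and counted by scintillation. IC50 for displacement; Ki by Cheng-Prusoff.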

Bounds are passed on as bounds.

This is an account of results in patent publication US20070185161A1, “Bicyclic substituted indole-derivative steroid hormone nuclear receptor modulators” (priority 2004, published 2007).

Usually Ki stands for a measure of affinity in units of concentration, obtained from inhibition or displacement. For `CC1(c2c[nH]c3c(NS(C)(=O)=O)cccc23)CCSc2ccccc21` (centres unmarked) [Example 37, N-[3-(4-Methyl-thiochroman-4-yl)-1-indol-7-yl]-methanesulfonamide], the Ki is at most 500 nM.

In the case of `CC1(c2c[nH]c3c(NS(C)(=O)=O)cccc23)CCCCc2ccccc21` (centres unmarked) [Example 38, N-[3-(5-Methyl-6,7,8,9-tetrahydro-5H-benzocyclohepten-5-yl)-1H-indol-7-yl]-methanesulfonamide], the Ki is at most 500 nM.

Take `CS(=O)(=O)Nc1cccc2c(C3(CCCI)CCc4cc(F)ccc43)c[nH]c12` (centres unmarked) [Example 41, N-{3-[5-Fluoro-1-(3-iodo-propyl)-indan-1-yl]-1H-indol-7-yl}-methanesulfonamide]: the Ki is at most 500 nM.

Take `CNCCCC1(c2c[nH]c3c(NS(C)(=O)=O)cccc23)CCc2cc(F)ccc21` (centres unmarked) [Example 42, N-{3-[5-Fluoro-1-(3-methylamino-propyl)-indan-1-yl]-1H-indol-7-yl}-methanesulfonamide]: the Ki was at most 500 nM.

Consider `CS(=O)(=O)Nc1cccc2c(C3(CCCN4CCOCC4)CCc4cc(F)ccc43)c[nH]c12` (centres unmarked) [Example 44, N-{3-[5-Fluoro-1-(3-morpholin-4-yl-propyl)-indan-1-yl]-1H-indol-7-yl}-methanesulfonamide], for which the Ki was at most 500 nM.
